Consider 1 compound from US9033962B2, “Photodynamic therapy including light pretreatment” (Case Western Reserve University, priority 2010, dated 2015).

A short description of series [1]: Time interval for delivery of photosensitizer through skin, with or without first photoirradiation. The class given is in vivo. To be noted: after a first photoirradiation. The text has this:
Once the first photoirradiation has been delivered to the area of tissue, a sufficient interval of time should be allowed to pass for an effective amount of the photosensitizer to further penetrate the tissue. In the case of skin tissue, a sufficient interval of time is preferably provided to allow the photosensitizer to reach the lower levels of skin such as the basal epidermis and/or the papillary dermis, which is the upper layer of the dermis immediately beneath the epidermis. The particular layer of skin targeted can vary depending on the disease being treated. Examples of sufficient intervals include 1 hour, 30 minutes, 10 minutes, 5 minutes, or any other interval within this range. In addition to providing sufficient time for the photosensitizer to penetrate the skin to the desired level, care should also be taken to avoid providing too much time, which can result in passage of significant amounts of the photosensitizer beyond the intended site.

The nature of series [2]: Pc 4 fluorescence after topical application on mouse ear skin, with or without an initial light dose. The class given is in vivo. To be noted: Pc 4 0.1 mg/mL topical on mouse ear skin, initial small light dose 50 J/cm2, versus 15 minutes of topical application without light. An excerpt: FIG. 1 is a pair of photographs showing that photoirradiation of mouse ear skin to which Pc 4 had been topically applied facilitates Pc 4 penetration into the skin.
(§1) When treating skin, the area of skin can be covered with an opaque dressing during the interval of time between the first and second photoirradiation to prevent further activation of the photosensitizer by ambient light. While not intending to be bound by theory, the first photoirradiation may increase the ability of the photosensitizing agent to penetrate tissue as a result of breaking up aggregates of the photosensitizing agent and/or by disrupting the tissue barrier as a result of the release of reactive oxygen species. Accordingly, this first photoirradiation can also be referred to as the disruptive photoirradiation, or light pretreatment. The ability of light pretreatment to facilitate the penetration of photosensitizer to lower levels of skin is illustrated by FIGS. 1 and 2.

The conditions of series [3]: used topically on skin lesions; cited from earlier work.
For series [4] the following is noted: human skin 1-2 hours after Pc 4 applied, no light pretreatment; cited from earlier work.
Series [5] in a line: Confocal imaging of skin sections from psoriasis patients with lesions treated with Pc 4 versus Pc 4 plus red light. The class given is in vivo, human. To be noted: for location of Pc 4 fluorescence in skin: psoriasis lesions. The protocol: FIG. 2 includes 4 sets of images obtained from confocal imaging of skin sections from two psoriasis patients with lesions to which Pc 4 (0.1 mg/ml) versus Pc 4 (0.1 mg/ml) plus 100 J/cm2 of red light (675 nm) was applied.
as §1
A variety of methods are available to determine the amount of energy and/or time necessary for an effective amount of the photosensitizer to reach the desired tissue level, such as a lower level of the skin, under the conditions being used. Such methods can be referred to as photosensitizer localization assays. For example, a biopsy can be obtained after administration of the photosensitizer from which the photosensitizer is chemically extracted and quantified using conventional analytic techniques such as UV spectrophotometry. The photosensitizer (e.g., Pc 4) can also be identified from biopsy samples using confocal imaging of the fluorescence of the photosensitizer either with or without the use of additional labels targeted at specific intracellular components (e.g., DAPI, mitotracker). Such techniques can be helpful to determine therapeutically effective doses, and also to evaluate non-responding subjects for possible poor photosensitizer permeation through the skin or other complications.

On to `CN(C)CCC[Si](C)(C)O[Si]1(O)n2c3c4ccccc4c2N=C2N=C(N=c4c5ccccc5c(n41)=NC1=NC(=N3)c3ccccc31)c1ccccc12` (stereo not shown) [Pc 4, HOSiPcOSi(CH3)2(CH2)3N(CH3)2], for which the “time interval needed for delivery through skin” value in series [1] is recorded as “fifteen”. For the same compound, the “depth of Pc 4 in skin (Pc 4 fluorescence)” value in series [2] is on record as “enhanced”. For the same compound, in series [3], the safety profile entry is “excellent safety profile”. Also, the “absorption in the epidermis” value in series [4] was “significant absorption”. The “absorption in the papillary dermis” value in series [4] is “minimal to no absorption”. Further, the “location of Pc 4 fluorescence in skin” value is “limited to the stratum corneum” in series [5] (Pc 4 0.1 mg/ml alone, after more than one hour of application); “not only in the stratum corneum but also in the epidermis and upper dermis” in series [5] (Pc 4 0.1 mg/ml for 1 hour followed by 100 J/cm2 red light (675 nm)). Further, the “Pc 4 fluorescence in the cells within the epidermis and upper dermis (higher magnification)” value in series [5] (Pc 4 + light (100 J/cm2, 675 nm)) is listed as “there is indeed Pc 4 fluorescence”; in series [5] (Pc 4 alone), “not observed”. Further, in series [5] (initial dose of light on psoriatic lesions in humans to which Pc 4 has been applied), the “absorption of Pc 4 into the epidermis and upper dermis” value is on record as “facilitates the absorption”.
